Experimental data: ChEMBL document CHEMBL4312022, “Design, synthesis, and biological evaluation of ligustrazine - betulin amino-acid/dipeptide derivatives as anti-tumor agents” (Eur J Med Chem, 2020)
The source made the active and inactive calls. The calls are words filed in the database; no cut-off is given here.

Tests used:
HeLa = assay: Antiproliferative activity against human HeLa cells assessed as reduction in cell viability after 72 hrs by MTT assay; assay type: functional, cell-based
HepG2 [1] = assay: Antiproliferative activity against human HepG2 cells assessed as reduction in cell viability after 72 hrs by MTT assay; assay type: functional, cell-based; conditions: HepG2, 72 h
BGC-823 = assay: Antiproliferative activity against human BGC823 cells assessed as reduction in cell viability after 72 hrs by MTT assay; assay type: functional, cell-based; conditions: BGC-823, 72 h
HT-29 = assay: Antiproliferative activity against human HT-29 cells assessed as reduction in cell viability after 72 hrs by MTT assay; assay type: functional, cell-based; conditions: HT-29, 72 h
MDCK = assay: Cytotoxicity against MDCK cells assessed as reduction in cell viability after 72 hrs by MTT assay; assay type: cell-based; conditions: Canis lupus familiaris
[2] = Selectivity index, ratio of IC50 for MDCK cells to IC50 for human HepG2 cells
[3] = Toxicity in zebrafish embryos assessed as mortality rate at 4 uM after 72 hrs (reference value: 3.33 +/- 4.71%); parameters: species or system Danio rerio; conditions: in vivo
[4] = Toxicity in zebrafish embryos assessed as malformation rate at 4 uM after 72 hrs (reference value: 0%); parameters: species or system Danio rerio; conditions: in vivo
[5] = Toxicity in zebrafish embryos assessed as body length at 4 uM after 72 hrs (reference value: 4165.80 +/- 64.98 micrometer); parameters: species or system Danio rerio; conditions: in vivo
[6] = Toxicity in zebrafish embryos assessed as effect on morphological changes at 4 uM after 72 hrs; parameters: species or system Danio rerio; conditions: in vivo
[7] = Toxicity in zebrafish embryos assessed as spinal cord bending at 4 uM after 72 hrs; parameters: species or system Danio rerio; conditions: in vivo
HepG2 [8] = assay: Induction of morphological changes in human HepG2 cells assessed as cell fragmentation at 8 uM after 72 hrs by giemsa staining based inverted microscopic analysis; assay type: functional
HepG2 [9] = assay: Induction of morphological changes in human HepG2 cells assessed as cell pyknosis at 8 uM after 72 hrs by giemsa staining based inverted microscopic analysis; assay type: functional
HepG2 [10] = assay: Induction of apoptosis in human HepG2 cells assessed as reduction in number of normal cell morphology at 2 to 8 uM after 72 hrs by giemsa staining based inverted microscopic analysis; assay type: functional
HepG2 [11] = assay: Induction of apoptosis in human HepG2 cells assessed as concentrated chromatin at 2 to 8 uM after 72 hrs by DAPI-staining based fluorescence microscopic analysis; assay type: functional, cell-based
HepG2 [12] = assay: Induction of apoptosis in human HepG2 cells assessed as nuclear fragmentation at 2 to 8 uM after 72 hrs by DAPI-staining based fluorescence microscopic analysis; assay type: functional, cell-based
HepG2 [13] = assay: Induction of apoptosis in human HepG2 cells assessed as reduction in number of cells up to 8 uM after 72 hrs by DAPI-staining based fluorescence microscopic analysis; assay type: functional, cell-based
HepG2 [14] = assay: Induction of apoptosis in human HepG2 cells assessed as increase in cell disruption up to 8 uM after 72 hrs by DAPI-staining based fluorescence microscopic analysis; assay type: functional
HepG2 [15] = assay: Induction of apoptosis in human HepG2 cells assessed as late apoptotic cells at 4 uM after 24 hrs by AnnexinV-FITC/PI-staining based flow cytometry (reference value: 4.5%); assay type: functional
HepG2 [16] = assay: Induction of apoptosis in human HepG2 cells assessed as early apoptotic cells at 4 uM after 24 hrs by AnnexinV-FITC/PI-staining based flow cytometry (reference value: 0.5%); assay type: functional
HepG2 [17] = assay: Induction of apoptosis in human HepG2 cells assessed as late apoptotic cells at 8 uM after 24 hrs by AnnexinV-FITC/PI-staining based flow cytometry (reference value: 4.5%); assay type: functional
HepG2 [18] = assay: Induction of apoptosis in human HepG2 cells assessed as early apoptotic cells at 8 uM after 24 hrs by AnnexinV-FITC/PI-staining based flow cytometry (reference value: 0.5%); assay type: functional
HepG2 [19] = assay: Induction of apoptosis in human HepG2 cells assessed as late apoptotic cells at 12 uM after 24 hrs by AnnexinV-FITC/PI-staining based flow cytometry (reference value: 4.5%); assay type: functional
HepG2 [20] = assay: Induction of apoptosis in human HepG2 cells assessed as early apoptotic cells at 12 uM after 24 hrs by AnnexinV-FITC/PI-staining based flow cytometry (reference value: 0.5%); assay type: functional
HepG2 [21] = assay: Induction of cell cycle arrest in human HepG2 cells assessed as accumulation at G1 phase at 2 uM after 72 hrs by PI-staining based flow cytometry (reference value: 66.9%); assay type: functional
HepG2 [22] = assay: Induction of cell cycle arrest in human HepG2 cells assessed as accumulation at G2 phase at 2 uM after 72 hrs by PI-staining based flow cytometry (reference value: 19.2%); assay type: functional
HepG2 [23] = assay: Induction of cell cycle arrest in human HepG2 cells assessed as accumulation at S phase at 2 uM after 72 hrs by PI-staining based flow cytometry (reference value: 13.9%); assay type: functional
HepG2 [24] = assay: Induction of cell cycle arrest in human HepG2 cells assessed as accumulation at G1 phase at 4 uM after 72 hrs by PI-staining based flow cytometry (reference value: 66.9%); assay type: functional
HepG2 [25] = assay: Induction of cell cycle arrest in human HepG2 cells assessed as accumulation at G2 phase at 4 uM after 72 hrs by PI-staining based flow cytometry (reference value: 19.2%); assay type: functional
HepG2 [26] = assay: Induction of cell cycle arrest in human HepG2 cells assessed as accumulation at S phase at 4 uM after 72 hrs by PI-staining based flow cytometry (reference value: 13.9%); assay type: functional
HepG2 [27] = assay: Induction of cell cycle arrest in human HepG2 cells assessed as accumulation at G1 phase at 8 uM after 72 hrs by PI-staining based flow cytometry (reference value: 66.9%); assay type: functional
HepG2 [28] = assay: Induction of cell cycle arrest in human HepG2 cells assessed as accumulation at G2 phase at 8 uM after 72 hrs by PI-staining based flow cytometry (reference value: 19.2%); assay type: functional
HepG2 [29] = assay: Induction of cell cycle arrest in human HepG2 cells assessed as accumulation at S phase at 8 uM after 72 hrs by PI-staining based flow cytometry (reference value: 13.9%); assay type: functional

With `C=C(C)[C@@H]1CC[C@]2(COC(=O)c3nc(C)c(C)nc3C)CC[C@]3(C)[C@H](CC[C@@H]4[C@@]5(C)CC[C@H](OC(=O)[C@@H]6CCCN6C(=O)CNC(C)=O)C(C)(C)[C@@H]5CC[C@]43C)[C@@H]12` the IC50 (HeLa) was 17.9 µM, the IC50 (HepG2 [1]) was 18.4 µM and the IC50 (BGC-823) was 18.9 µM. For the same compound, the IC50 (HT-29) was 14.7 µM and the IC50 (MDCK) was 18.9 µM.

For `C=C(C)[C@@H]1CC[C@]2(COC(=O)c3nc(C)c(C)nc3C)CC[C@]3(C)[C@H](CC[C@@H]4[C@@]5(C)CC[C@H](OC(=O)[C@@H](N)[C@@H](C)CC)C(C)(C)[C@@H]5CC[C@]43C)[C@@H]12`, the IC50 (HeLa) was over 20 µM, the IC50 (HepG2 [1]) was over 20 µM and the IC50 (BGC-823) was over 20 µM. It also gave an IC50 (HT-29) of 16.6 µM and an IC50 (MDCK) of over 20 µM.

In the case of `C=C(C)[C@@H]1CC[C@]2(COC(=O)c3nc(C)c(C)nc3C)CC[C@]3(C)[C@H](CC[C@@H]4[C@@]5(C)CC[C@H](OC(=O)[C@@H]6CCCN6C(=O)[C@@H]6CCCN6C(C)=O)C(C)(C)[C@@H]5CC[C@]43C)[C@@H]12`, the IC50 (HeLa) is reported as 11.1 µM, the IC50 (HepG2 [1]) is reported as over 20 µM and the IC50 (BGC-823) is reported as over 20 µM. It also gave an IC50 (HT-29) of over 20 µM and an IC50 (MDCK) of over 20 µM.

`C=C(C)[C@@H]1CC[C@]2(COC(=O)c3nc(C)c(C)nc3C)CC[C@]3(C)[C@H](CC[C@@H]4[C@@]5(C)CC[C@H](OC(=O)CNC(=O)CNC(C)=O)C(C)(C)[C@@H]5CC[C@]43C)[C@@H]12` showed an IC50 (HeLa) of over 20 µM, an IC50 (HepG2 [1]) of over 20 µM and an IC50 (BGC-823) of 7.85 µM. The IC50 (HT-29) was 11.2 µM and the IC50 (MDCK) was 14.5 µM.

`C=C(C)[C@@H]1CC[C@]2(COC(=O)c3nc(C)c(C)nc3C)CC[C@]3(C)[C@H](CC[C@@H]4[C@@]5(C)CC[C@H](OC(=O)[C@@H]6CCC(=O)N6)C(C)(C)[C@@H]5CC[C@]43C)[C@@H]12` gave an IC50 (HeLa) of 19.4 µM, an IC50 (HepG2 [1]) of 16.5 µM and an IC50 (BGC-823) of 8.62 µM. It also gave an IC50 (HT-29) of 15.3 µM and an IC50 (MDCK) of 16.7 µM.

Work on `C=C(C)[C@@H]1CC[C@]2(COC(=O)c3nc(C)c(C)nc3C)CC[C@]3(C)[C@H](CC[C@@H]4[C@@]5(C)CC[C@H](OC(=O)CN)C(C)(C)[C@@H]5CC[C@]43C)[C@@H]12` yielded an IC50 (HeLa) of 4.91 µM, an IC50 (HepG2 [1]) of 4.07 µM and an IC50 (BGC-823) of 4.24 µM. The IC50 (HT-29) was 6.21 µM, the IC50 (MDCK) was 16.1 µM and the “Ratio IC50” value [2] was 3.91. The mortality at 72 h, 4 µM [3] was 8.33%, the Activity [4] was 0% and the Activity [5] was 4140.09 um. For the same compound, the Activity [6] was “Non-Toxic”, the Activity [7] was “Non-Toxic” and the Activity (HepG2 [8]) was “Active”. The Activity (HepG2 [9]) was “Active”, the Activity (HepG2 [10]) was “Active” and the Activity (HepG2 [11]) was “Active”. The Activity (HepG2 [12]) was “Active”, the Activity (HepG2 [13]) was “Active” and the Activity (HepG2 [14]) was “Active”. It also gave an Activity (HepG2 [15]) of 15.4%, an Activity (HepG2 [16]) of 5.5% and an Activity (HepG2 [17]) of 19.2%. The Activity (HepG2 [18]) was 14.2%, the Activity (HepG2 [19]) was 21.4% and the Activity (HepG2 [20]) was 35.4%. For the same compound, the Activity (HepG2 [21]) was 76.8%, the Activity (HepG2 [22]) was 15.8% and the Activity (HepG2 [23]) was 7.3%. The Activity (HepG2 [24]) was 79.6%, the Activity (HepG2 [25]) was 14.9% and the Activity (HepG2 [26]) was 5.6%. It also gave an Activity (HepG2 [27]) of 81.5%, an Activity (HepG2 [28]) of 13.6% and an Activity (HepG2 [29]) of 4.9%.

Compound `C=C(C)[C@@H]1CC[C@]2(COC(=O)c3nc(C)c(C)nc3C)CC[C@]3(C)[C@H](CC[C@@H]4[C@@]5(C)CC[C@H](OC(=O)CN(C)C(=O)CCNC(C)=O)C(C)(C)[C@@H]5CC[C@]43C)[C@@H]12` has an IC50 (HeLa) of 4.13 µM, an IC50 (HepG2 [1]) of 11 µM and an IC50 (BGC-823) of 6.94 µM. The IC50 (HT-29) was 12.5 µM and the IC50 (MDCK) was 18.6 µM.

Compound `C=C(C)[C@@H]1CC[C@]2(COC(=O)c3nc(C)c(C)nc3C)CC[C@]3(C)[C@H](CC[C@@H]4[C@@]5(C)CC[C@H](OC(=O)[C@@H]6CCCN6)C(C)(C)[C@@H]5CC[C@]43C)[C@@H]12` has an IC50 (HeLa) of 17.2 µM, an IC50 (HepG2 [1]) of 19.6 µM and an IC50 (BGC-823) of 10.4 µM. The IC50 (HT-29) was 15 µM and the IC50 (MDCK) was 17.6 µM.

In the case of `C=C(C)[C@@H]1CC[C@]2(COC(=O)c3nc(C)c(C)nc3C)CC[C@]3(C)[C@H](CC[C@@H]4[C@@]5(C)CC[C@H](OC(=O)[C@@H](N)C(C)C)C(C)(C)[C@@H]5CC[C@]43C)[C@@H]12`, the IC50 (HeLa) is reported as over 20 µM, the IC50 (HepG2 [1]) is reported as over 20 µM and the IC50 (BGC-823) is reported as over 20 µM. The IC50 (HT-29) was over 20 µM and the IC50 (MDCK) was over 20 µM.
